The values below come from patent US7067517B2 (priority 2001, dated 2006).

In the first experiment the target is T1, Hormone-sensitive lipase (HSL) (Homo sapiens, UniProt Q05469).
T1 sequence (Q05469 1-1076): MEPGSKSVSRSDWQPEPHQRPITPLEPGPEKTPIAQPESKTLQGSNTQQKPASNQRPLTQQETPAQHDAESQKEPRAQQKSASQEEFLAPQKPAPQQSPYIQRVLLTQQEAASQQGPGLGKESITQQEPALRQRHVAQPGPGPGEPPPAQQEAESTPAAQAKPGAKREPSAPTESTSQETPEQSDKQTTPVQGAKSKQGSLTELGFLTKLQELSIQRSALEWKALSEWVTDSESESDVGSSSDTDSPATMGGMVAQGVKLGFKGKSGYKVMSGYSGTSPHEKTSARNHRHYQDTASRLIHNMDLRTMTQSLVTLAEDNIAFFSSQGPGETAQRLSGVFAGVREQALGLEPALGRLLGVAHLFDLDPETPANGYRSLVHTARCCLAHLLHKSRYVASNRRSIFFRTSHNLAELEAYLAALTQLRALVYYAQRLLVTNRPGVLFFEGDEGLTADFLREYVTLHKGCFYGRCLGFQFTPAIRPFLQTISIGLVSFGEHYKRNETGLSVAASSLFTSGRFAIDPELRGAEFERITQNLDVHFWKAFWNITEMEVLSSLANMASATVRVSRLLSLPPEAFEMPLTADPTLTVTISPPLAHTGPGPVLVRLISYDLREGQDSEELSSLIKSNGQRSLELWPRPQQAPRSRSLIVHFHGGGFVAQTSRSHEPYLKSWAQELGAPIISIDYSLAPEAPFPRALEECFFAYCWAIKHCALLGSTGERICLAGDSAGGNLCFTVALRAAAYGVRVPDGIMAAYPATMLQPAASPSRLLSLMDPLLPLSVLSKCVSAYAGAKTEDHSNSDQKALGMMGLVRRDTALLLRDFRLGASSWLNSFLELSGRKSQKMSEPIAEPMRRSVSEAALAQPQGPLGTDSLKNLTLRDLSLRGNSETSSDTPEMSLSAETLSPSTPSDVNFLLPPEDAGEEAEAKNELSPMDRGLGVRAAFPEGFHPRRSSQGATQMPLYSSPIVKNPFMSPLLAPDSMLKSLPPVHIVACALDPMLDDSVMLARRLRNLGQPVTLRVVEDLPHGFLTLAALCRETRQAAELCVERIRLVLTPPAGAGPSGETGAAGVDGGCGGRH
Kind of experiment: biochemical. The following applies: 10 μM sample concentration; percent activity relative to a non-inhibited sample (no compound). The procedure:
Materials. The Hormone-sensitive lipase was provided by Dr. Cecilia Holm, from Lund University Sweden or produced and purified by Novo Nordisk (NN) using the reagents and protocols used by Dr. Holm. […] All other reagents are of commercial grade and obtained from various commercial sources.
BSA is added as product receptor. The transfer of the fluorochrome from the lipid phase to the water (BSA) phase changes the fluorescent properties of the fluorochrome. The changes can be monitored on a fluorimeter with an excitation wavelength of 450 nm and an emission wavelength of 545 nm.
Compound and HSL (20 μL compound, 10 μL enzyme and 70 μL PED-BSA buffer) is pre-incubated for 30 min at 25° C. before addition of substrate (100 μL). Amount of formed product is measured after 120 min incubation at 37° C.
Turning to `CN(C(=O)Oc1ccc(OC(F)(F)C(F)(F)F)cc1)c1ccccc1` [Example 20], the “Test 3190.1 HSL_FL % ACTIVITY All” value was found to be 51%.

Still in this experiment, the particulars now being: 10 μM sample concentration; percent activity relative to a non-inhibited sample (no compound); read-out: Test 3190.1 HSL_FL % ACTIVITY All.
`CCN(C(=O)Oc1ccc(Oc2ccc(C(F)(F)F)cc2)cc1)c1ccccc1` [Example 54, Ethyl-phenyl-carbamic acid 4-(4-trifluoromethyl-phenoxy)-phenyl ester]: the activity at 10 µM turned out to be 52%.

Regarding `O=C(Oc1ccc(Oc2ccc(C(F)(F)F)cn2)cc1)N1CCc2ccccc21` [Example 62, 2,3-Dihydro-indole-1-carboxylic acid 4-(5-trifluoromethyl-pyridin-2-yloxy)-phenyl ester], the activity at 10 µM was 88%.

Still in this experiment, the particulars now being: read-out: Test 3190.1 HSL_FL % ACTIVITY All.
For `CN(C(=O)Oc1ccc(OC(C)(C)C)cc1)c1ccccc1` [Example 11, Methyl-phenyl-carbamic acid 4-tert-butoxy-phenyl ester], the activity at 10 µM was determined as 17%.

Consider `CN(C(=O)Oc1ccc(-c2ccc(Br)cc2)cc1)c1ccccc1` [Example 24, Methyl-phenyl-carbamic acid 4′-bromo-biphenyl-4-yl-ester], for which the activity at 10 µM stood at 30%.

For the compound `COc1ccc(-c2c(C)c3ccc(OC(=O)N(C)c4ccccc4)cc3oc2=O)cc1` [Example 46, Methyl-phenyl-carbamic acid 3-(4-methoxy-phenyl)-4-methyl-2-oxo-2H-chromen-7-yl ester], the activity at 10 µM was determined as 43%.

In the case of `Cc1c(-c2ccccc2)c(=O)oc2cc(OC(=O)N(C)c3ccccc3)ccc12` [Example 47, Methyl-phenyl-carbamic acid 4-methyl-2-oxo-3-phenyl-2H-chromen-7-yl ester], the activity at 10 µM worked out at 42%.

In the case of `COc1ccc(OC)c(-c2c(C)c3ccc(OC(=O)N(C)c4ccccc4)cc3oc2=O)c1` [Example 48, Methyl-phenyl-carbamic acid 3-(2,5-dimethoxy-phenyl)-4-methyl-2-oxo-2H-chromen-7-yl ester], the activity at 10 µM amounted to 15%.

On to `CN(C(=O)Oc1ccc(Oc2ccc(C(F)(F)F)cn2)cc1)C1CCCCC1` [Example 59, Cyclohexyl-methyl-carbamic acid 4-(5-trifluoromethyl-pyridin-2-yloxy)-phenyl ester], for which the activity at 10 µM turned out to be 16%.

The target of a further experiment is T1, Hormone-sensitive lipase (HSL). Kind of experiment: Test 2848.2: high-volume screening assay, para-nitrophenyl butyrate (p-NPB) substrate. In kind it is biochemical. The following applies: UV-abs 405 nm, 20 min room temp, % Eff (% Inhibition). An excerpt:
Materials. The Hormone-sensitive lipase was provided by Dr. Cecilia Holm, from Lund University Sweden or produced and purified by Novo Nordisk (NN) using the reagents and protocols used by Dr. Holm. The substrates used are: ^3H-labeled triolein (TO) from Amersham, Buckinghamshire, U.K. cat No. TRA191; 5–20 Ci/mmol dissolved in toluene, triolein (Sigma, Cat. No. T-1740), fluorochrome-labeled triacylglyceride (cis-octadec-9-enoic acid 2-[12-(7-nitrobenzo[1,2,5]oxadiazol-4-ylamino)dodecanoyloxy]-1-cis-octadec-9-enoyloxymethyl-ethyl ester) prepared by Novo Nordisk (NN) by conventional methods, and 1,3-(di[^3H]-stearin), 2-(PEG-Boitin)glycerol prepared in collaboration with Amersham Pharmacia Biotech, UK and described in WO 01/073442. Phosphatidyl choline (PC) and phosphatidyl inositol (PI) are from Sigma (St Luis Mo. cat. Nos. P-3556 and P-5954 respectively). All other reagents are of commercial grade and obtained from various commercial sources.
2848.2: This high-volume screening assay uses para-nitrophenyl butyrate (p-NPB) as substrate for HSL. HSL cleaves p-NPB and the reaction is monitored as an increase in the concentration of para-nitrophenol (p-NP). p-NP can be monitored as an increase in UV-absorbance at 405 nm. The reaction is carried out at room-temp. for 20 min. The action is not stopped, but instead UV-abs is measured at a fixed time (20 min.) Due to autohydrolysis of the substrate the reaction is read at t=0 min. too and t=20 min. and the increase in Abs is calculated as the difference between the two readings. When a compound that inhibits HSL is present, it results in a relative decrease in UV-absorbance. % Eff(% Inhibition)=(S−S0Eff)/(SmaxEff−S0Eff)×100 Where S=signal in UV-abs., S0Eff=assaybuffer alone, SmaxEff=Assaybuffer with the lipase inhibitor.
Consider `Cc1ccc(NC(C=O)=NOC(=O)NC2CCCCC2)cc1` [Example 104, 2-Oxo-N-p-tolylacetamide O-(cyclohexylcarbamoyl)-oxime], for which the “Test 2848.2 HSL % Inhibition All” value is given as 19.8%.

As for `O=C(NC1CCCCC1)ON=C1c2ccccc2CCc2ccccc21` [Example 105, 10,11-Dihydro-dibenzo[a,d]cyclohepten-5-one O-cyclohexylcarbamoyl-oxime], the “Test 2848.2 HSL % Inhibition All” value was 26.8%.

For the compound `CCCCCCC(C=Cc1ccc(Cl)cc1)=NOC(=O)NC1CCCCC1` [Example 106, 1-(4-Chlorophenyl)-non-1-en-3-one O-cyclohexylcarbamoyl-oxime], the “Test 2848.2 HSL % Inhibition All” value is 23.8%.

In the case of `CC12CCC(CC1=NOC(=O)NC1CCCCC1)C2(C)C` (centres unmarked) [Example 107, 1,7,7-Trimethyl-bicyclo[2.2.1]heptan-2-one O-cyclohexylcarbamoyl-oxime], the “Test 2848.2 HSL % Inhibition All” value amounted to 59.9%.

Consider `CC(C)CCC(C=Cc1ccc(Br)cc1)=NOC(=O)NC(C)C` [Example 108, 1-(4-Bromophenyl)-6-methyl-hept-1-en-3-one O-isopropylcarbamoyl-oxime], for which the “Test 2848.2 HSL % Inhibition All” value worked out at 37.2%.

`CCCCCCC(C=Cc1ccc(Cl)cc1)=NOC(=O)NC(C)C` [Example 109, 1-(4-Chloro-phenyl)-non-1-en-3-one O-isopropylcarbamoyl-oxime]: the “Test 2848.2 HSL % Inhibition All” value is given as 15.9%.

For `CNC(=O)ON=Cc1c(Br)cnn1Cc1ccc(Cl)cc1` [Example 110, 4-Bromo-2-(4-chlorobenzyl)-2H-pyrazole-3-carbaldehyde O-methylcarbamoyl-oxime], the “Test 2848.2 HSL % Inhibition All” value is recorded as 18.8%.

`CCCNC(=O)ON=C(C=Cc1ccc(Br)cc1)CCC(C)C` [Example 111, 1-(4-Bromophenyl)-6-methyl-hept-1-en-3-one O-propylcarbamoyl-oxime]: the “Test 2848.2 HSL % Inhibition All” value is recorded as 36.2%.

With `CN(C)C(=O)On1ccc2ccc(S(C)(=O)=O)cc21` [Example 114, Dimethylcarbamic acid 6-methanesulfonyl-indol-1-yl ester], the “Test 2848.2 HSL % Inhibition All” value is on record as 42.4%.

`CN(C)C(=O)On1nnc2ccccc2c1=O` [Example 116, Dimethylcarbamic acid 4-oxo-1,2,3-benzotriazin-3-yl ester]: the “Test 2848.2 HSL % Inhibition All” value amounted to 23.5%.

On to `O=C(Nc1ccc(Cl)cc1)n1nc(-c2ccc(Cl)cc2)cc1CCCO` [Example 126, N-(4-Chlorophenyl)-3-(4-chlorophenyl)-5-(3-hydroxypropyl)-pyrazole-1-carboxamide], for which the “Test 2848.2 HSL % Inhibition All” value amounted to 33%.

For `O=C(NCCc1ccccc1)n1nc(-c2ccc(Oc3ccccc3)cc2)cc1N1CCOCC1` [Example 127, 5-Morpholin-4-yl-3-(4-phenoxyphenyl)-pyrazole-1-carboxylic acid phenethylamide], the “Test 2848.2 HSL % Inhibition All” value is reported as 58.7%.

For the compound `O=C(Nc1ccccc1)n1ncc(S(=O)(=O)c2ccc(Cl)cc2)c1-c1ccc(Cl)cc1` [Example 128, N-Phenyl-4-(4-chlorobenzenesulfonyl)-5-(4-chlorophenyl)-pyrazole-1-carboxamide], the “Test 2848.2 HSL % Inhibition All” value came out at 33.8%.

For the compound `O=C(Nc1ccc(Cl)c(Cl)c1)n1c(-c2ccccc2)nc2ccccc21` [Example 129, N-(3,4-Dichlorophenyl)-2-phenyl-benzimidazole-1-carboxamide], the “Test 2848.2 HSL % Inhibition All” value is listed as 27%.

As for `CC(C)Sc1nnc(OC(=O)N(C)C)n1-c1cccc(C(F)(F)F)c1` [Example 130, Dimethyl-carbamic acid 5-isopropylsulfanyl-4-(3-trifluoromethyl-phenyl)-4H-[1,2,4]triazol-3-yl ester], the “Test 2848.2 HSL % Inhibition All” value stood at 30.1%.

For `CN(C)C(=O)Oc1c(-c2ccccc2)cn(Cc2ccccc2)c(=O)c1-c1ccccc1` [Example 131, Dimethyl carbamic acid 1-benzyl-2-oxo-3,5-diphenyl-1,2-dihydro-pyridin-4-yl ester], the “Test 2848.2 HSL % Inhibition All” value turned out to be 21.6%.

Regarding `COc1ccc2c(OC(=O)N(C)C)cc(=O)n(C)c2c1` [Example 132, Dimethyl-carbamic acid 7-methoxy-1-methyl-2-oxo-1,2-dihydro-quinolin-4-yl ester], the “Test 2848.2 HSL % Inhibition All” value came to 19.6%.
